# Columns and labels:
# [1] = tested on: Lolium multiflorum; experiment: Further glasshouse test versus other ACCase-inhibiting herbicides, Table B2-1; assay type: in vivo; details: 21 days after application
# [2] = tested on: Lolium multiflorum; experiment: Glasshouse post-emergence test, visual damage, Table B1-1; assay type: in vivo
# Method: Seeds of a variety of test species are sown in standard soil in pots. For each treatment, three replicate pots containing 10-15 plants per one-inch pot were sprayed at the 2-3 leaf stage. Clethodim and Compound (Ic) were each applied at 15, 30, 60 and 120 g ai/ha. The test plants are then grown in a glasshouse under controlled conditions in a glasshouse (at 24/16° C., day/night; 14 hours light; 65% humidity) and watered twice daily. […]
smiles,measurement,setting,value
"CCSC(C)CC1CC(=O)C(/C(CC)=N/OC/C=C/Cl)=C(O)C1 (centres unmarked) [Clethodim, clethodim]",visual damage,"[1]; biotype C2088R, 15 g/ha",0%
same,visual damage,"[1]; biotype C2088R, 30 g/ha",13%
same,visual damage,"[1]; biotype C2088R, 60 g/ha",40%
same,visual damage,"[1]; biotype C2088R, 120 g/ha",90%
same,visual damage,"[1]; biotype C2088R, 240 g/ha",100%
same,visual damage,"[1]; biotype D2078G, 15 g/ha",10%
same,visual damage,"[1]; biotype D2078G, 30 g/ha",17%
same,visual damage,"[1]; biotype D2078G, 60 g/ha",27%
same,visual damage,"[1]; biotype D2078G, 120 g/ha",70%
same,visual damage,"[1]; biotype D2078G, 240 g/ha",100%
same,visual damage,"[1]; biotype I1781L, 15 g/ha",23%
same,visual damage,"[1]; biotype I1781L, 30 g/ha",53%
same,visual damage,"[1]; biotype I1781L, 60 g/ha",70%
same,visual damage,"[1]; biotype I1781L, 120 g/ha",100%
same,visual damage,"[1]; biotype I1781L, 240 g/ha",100%
same,visual damage,"[1]; biotype Sensitive, 15 g/ha",100%
same,visual damage,"[1]; biotype Sensitive, 30 g/ha",100%
same,visual damage,"[1]; biotype Sensitive, 60 g/ha",100%
same,visual damage,"[1]; biotype Sensitive, 120 g/ha",100%
same,visual damage,"[1]; biotype Sensitive, 240 g/ha",100%
same,visual damage,"[1]; biotype W1999S, 15 g/ha",27%
same,visual damage,"[1]; biotype W1999S, 30 g/ha",98%
same,visual damage,"[1]; biotype W1999S, 60 g/ha",100%
same,visual damage,"[1]; biotype W1999S, 120 g/ha",100%
same,visual damage,"[1]; biotype W1999S, 240 g/ha",100%
same,visual damage,"[1]; biotype W2027C, 15 g/ha",63%
same,visual damage,"[1]; biotype W2027C, 30 g/ha",100%
same,visual damage,"[1]; biotype W2027C, 60 g/ha",100%
same,visual damage,"[1]; biotype W2027C, 120 g/ha",100%
same,visual damage,"[1]; biotype W2027C, 240 g/ha",100%
same,visual damage,"[1]; population LM-NTSR-1 (non-target-site resistance), 15 g/ha",63%
same,visual damage,"[1]; population LM-NTSR-1 (non-target-site resistance), 30 g/ha",97%
same,visual damage,"[1]; population LM-NTSR-1 (non-target-site resistance), 60 g/ha",100%
same,visual damage,"[1]; population LM-NTSR-1 (non-target-site resistance), 120 g/ha",100%
same,visual damage,"[1]; population LM-NTSR-1 (non-target-site resistance), 240 g/ha",100%
same,visual damage,"[1]; population LM-NTSR-2 (non-target-site resistance), 15 g/ha",3%
same,visual damage,"[1]; population LM-NTSR-2 (non-target-site resistance), 30 g/ha",55%
same,visual damage,"[1]; population LM-NTSR-2 (non-target-site resistance), 60 g/ha",70%
same,visual damage,"[1]; population LM-NTSR-2 (non-target-site resistance), 120 g/ha",75%
same,visual damage,"[1]; population LM-NTSR-2 (non-target-site resistance), 240 g/ha",95%
same,visual damage,"[2]; biotype CC2027 (homozygous), 15 g/ha, 14 days after application",53%
same,visual damage,"[2]; biotype CC2027 (homozygous), 30 g/ha, 14 days after application",77%
same,visual damage,"[2]; biotype CC2027 (homozygous), 60 g/ha, 14 days after application",100%
same,visual damage,"[2]; biotype CC2027 (homozygous), 120 g/ha, 14 days after application",100%
same,visual damage,"[2]; biotype GG2078 (homozygous), 15 g/ha, 14 days after application",0%
same,visual damage,"[2]; biotype GG2078 (homozygous), 30 g/ha, 14 days after application",20%
same,visual damage,"[2]; biotype GG2078 (homozygous), 60 g/ha, 14 days after application",20%
same,visual damage,"[2]; biotype GG2078 (homozygous), 120 g/ha, 14 days after application",50%
same,visual damage,"[2]; biotype LL1781 (homozygous), 15 g/ha, 14 days after application",23%
same,visual damage,"[2]; biotype LL1781 (homozygous), 30 g/ha, 14 days after application",37%
same,visual damage,"[2]; biotype LL1781 (homozygous), 60 g/ha, 14 days after application",60%
same,visual damage,"[2]; biotype LL1781 (homozygous), 120 g/ha, 14 days after application",70%
same,visual damage,"[2]; biotype NN2041 (homozygous), 15 g/ha, 14 days after application",70%
same,visual damage,"[2]; biotype NN2041 (homozygous), 30 g/ha, 14 days after application",100%
same,visual damage,"[2]; biotype NN2041 (homozygous), 60 g/ha, 14 days after application",100%
same,visual damage,"[2]; biotype NN2041 (homozygous), 120 g/ha, 14 days after application",100%
same,visual damage,"[2]; biotype RR2088 (homozygous), 15 g/ha, 14 days after application",0%
same,visual damage,"[2]; biotype RR2088 (homozygous), 30 g/ha, 14 days after application",20%
same,visual damage,"[2]; biotype RR2088 (homozygous), 60 g/ha, 14 days after application",60%
same,visual damage,"[2]; biotype RR2088 (homozygous), 120 g/ha, 14 days after application",60%
same,visual damage,"[2]; biotype SS1999 (homozygous), 15 g/ha, 21 DAA",27%
same,visual damage,"[2]; biotype SS1999 (homozygous), 30 g/ha, 21 DAA",98%
same,visual damage,"[2]; biotype SS1999 (homozygous), 60 g/ha, 21 DAA",100%
same,visual damage,"[2]; biotype SS1999 (homozygous), 120 g/ha, 21 DAA",100%
same,visual damage,"[2]; biotype Sensitive, 15 g/ha, 14 days after application",53%
same,visual damage,"[2]; biotype Sensitive, 30 g/ha, 14 days after application",73%
same,visual damage,"[2]; biotype Sensitive, 60 g/ha, 14 days after application",99%
same,visual damage,"[2]; biotype Sensitive, 120 g/ha, 14 days after application",100%

# From patent publication US20260215428A1, “WEED CONTROL METHOD” (SYNGENTA CROP PROTECTION AG, priority 2023, published 2026)
